# Laboratory results published in patent US10322191B2, “Targeted conjugates and particles and formulations thereof” (TARVEDA THERAPEUTICS, INC., priority 2014, dated 2019).
# Read-outs that look alike come from different tables or passages of the source. Numbered stars: 1 amine (or outer) side, 2 acyl side, 3 side chain; on linkers, the order of the positions; unused ones are H or OH. Bridge positions count the residues as written; N and C are the ends. Square brackets hold non-standard residues; d marks the D form. Peptide text beside a SMILES is read from it. * marks the point of attachment. X1 = COc1cc2cc(c1Cl)N(C)C(=O)C[C@H](OC(=O)[C@H](C)N(C)C(=O)CCS*)[C@]1(C)O[C@H]1[C@H](C)[C@@H]1C[C@@](O)(NC(=O)O1)[C@H](OC)/C=C/C=C(\C)C2; N(3-sulfanylpropyl)dPhe = O=C([C@@H](Cc1ccccc1)N(CCCS[*:3])[*:1])[*:2]
# Experiments:
# [1] = Solubility in aqueous media containing surfactants such as Tween 80; format: physicochemical; settings: aqueous Tween 80
# [2] = biological target: T1, SSTR2 (Homo sapiens, UniProt P30874); experiment: PathHunter eXpress Activated GPCR Internalization agonist assay; format: cell-based; set-up: expressed in transfected cells; settings: receptor internalization, agonist dose response
# T1 sequence (P30874 whole entry): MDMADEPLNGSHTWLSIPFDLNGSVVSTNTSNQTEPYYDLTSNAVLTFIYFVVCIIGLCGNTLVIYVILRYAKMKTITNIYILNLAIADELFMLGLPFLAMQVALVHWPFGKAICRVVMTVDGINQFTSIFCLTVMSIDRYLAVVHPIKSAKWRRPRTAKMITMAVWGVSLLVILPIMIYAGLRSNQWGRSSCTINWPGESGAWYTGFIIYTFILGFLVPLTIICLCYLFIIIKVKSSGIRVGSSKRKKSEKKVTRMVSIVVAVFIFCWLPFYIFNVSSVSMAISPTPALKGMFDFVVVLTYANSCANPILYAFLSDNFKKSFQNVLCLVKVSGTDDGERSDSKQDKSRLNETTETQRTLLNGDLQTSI
# Description: Two conjugates were assessed in an in vitro assay evaluating SSTR2. The steps outlined below provide the assay volumes and procedure for performing agonist assays using the PathHunter eXpress Activated GPCR Internalization cells and PathHunter Detection Reagents generally according to the manufacturer's recommendations. GraphPad Prism® was used to plot the agonist dose response.
# [3] = tested on: NCI-H524 (ATCC) human lung cancer cells; format: cell-based
# Outline: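 NCI-H524 cells at 5,000/well were exposed to conjugate for 2 h from 20 μM top dose (ten-point, three-fold dilutions), washed, then grown a further 70 h. For competition, cells were pretreated 30 min with 100 μM octreotide. CellTiter Glo readout; % inhibition vs vehicle; four-parameter IC50.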
# [4] = biological target: T1, SSTR2; experiment: Radioligand-receptor binding assay, [125I] labeled somatostatin, membranes from SSTR2 expressing CHO-K1 cells; set-up: host or cells: CHO-K1
# Description: Two conjugates were assessed in an in vitro assay evaluating binding to the somatostatin receptor 2 (SSTR2). A radioligand-receptor binding assay was conducted at Eurofins Panlabs (Taiwan) to determine the affinity of conjugates described herein to the SSTR2. The assay measures binding of radiolabeled ligand, [^125I] labeled somatostatin, to human SSTR2 using membrane preparations from SSTR2 expressing CHO-K1 cells. Membranes were incubated with radiolabeled somatostatin (0.03 nM) in the presence of conjugate/compound starting at a dose of 10 uM using 6× serial dilutions to obtain a 10-pt curve. After a four-hour incubation, membranes were filtered and washed 3× and counted to determine the remaining [^125I] somatostatin bound to the receptor. IC50 values were determined by a non-linear, least squares regression analysis using MathIQ™ (ID Business Solutions Ltd., UK). The Ki values were calculated using the equation of Cheng and Prusoff (Cheng and Prusoff, Biochem. Pharmacol. 22: 3099-3108, 1973) using the observed IC50 of the tested conjugate/compound, the concentration of radioligand employed in the assay, and the historical values for the KD of the ligand obtained at Eurofins.
# [5] = Pharmacokinetics in rat plasma of Conjugate 10 and Conjugate 10 NP6; settings: in vivo
# Description: Pharmacokinetics studies in rat plasma were also carried out. AUC values were show in Table 16.
# [6] = tested on: NCI-H69 SCLC (small cell lung cancer) tumors; experiment: H69 tumor DM-1 levels by LC/MS-MS; format: in vivo, mice; settings: 24 hour time point; dosed at 1 mg/kg (conjugates, nanoparticles) or 0.4 mg/kg for DM-1
# Description: To examine the ability of conjugates of the present invention to accumulate in tumors, a murine cancer model was used. All mice were treated in accordance with the OLAW Public Health Service Policy on Human Care and Use of Laboratory Animals and the ILAR Guide for the Care and Use of Laboratory Animals. All in vivo studies were conducted following the protocols approved by the Blend Therapeutics Institutional Animal Care and Use Committee. Animals were inoculated with 2.5×10{circumflex over (0)}6 NCI-H69 SCLC (small cell lung cancer) cells in 1:1 RPMI 1640 (Invitrogen, Carlsbad, Calif.)/Matrigel® (BD Biosciences, San Jose, Calif.) via subcutaneous injection to the right flank. Tumors were allowed to reach an approximate volume of ˜500 mm3. Animals were then randomized into treatment groups of 3 animals per time point and were dosed at 1 mg/kg (10% propylene glycol in water for injection for free conjugates, or 10% sucrose for nanoparticles), or 0.4 mg/kg for DM-1 (10% propylene glycol in water for injection). The 24 hour time point was used as a benchmark across conjugates.
# Tumor DM-1 levels were determined by liquid chromatography mass spectrometry (LC/MS-MS). Four volumes of 5 mM 6-maleimidohexanoic acid to 1 part tumor v/w was added and homogenized for about 10-15 seconds with a handheld homogenizer. 10 μL of 500 mM Tris(2-carboxyethyl)phosphine was added to 100 uL of tumor homogenate, mixed well and incubated at room temperature for about 5-15 min. 200-300 uL of acetonitrile was used to precipitate proteins in tumor homogenate, samples were centrifuged for 5 min, and supernatant was injected onto LC/MS-MS system for DM-1 analysis.
# [7] = tested on: phospho-histone H3; experiment: Phospho-histone H3 response in NCI-H69 tumors; format: in vivo; settings: FIG. 8
# [8] = tested on: human NCI-H69 SCLC; experiment: Tumor growth of human NCI-H69 SCLC in mice; format: in vivo, NCR nude mice; settings: for tumor volume: Conjugate 10 and Conjugate 10 NP6 2 mg/kg, DM1 0.8 mg/kg, once weekly for two doses, up to 100 days, FIG. 4
# Description: Applicants assessed the activity of a conjugate and a nanoparticle formulation of the conjugate in vivo. In these experiments, the ability of compounds to affect the growth of human NCI-H69 SCLC was tested. For the in vivo study, 8 week old female NCR nude mice were inoculated subcutaneously into the right flank with 2 million cells in 1:1 RPMI 1640 (Invitrogen, Carlsbad, Calif.)/Matrigel® (BD Biosciences, San Jose, Calif.). Tumor measurements were taken twice weekly, using vernier calipers. Tumor volume was calculated using the formula: V=0.5×width×width×length.
# When tumors approached a volume of 200 mm^3, mice were randomized into four groups of ten animals. Mice were treated with vehicle control (10% propylene glycol in water for injection), Conjugate 10 at 2 mg/kg (10% propylene glycol in water for injection), Conjugate 10 NP6 nanoparticle at 2 mg/kg (10% Sucrose), or DM1 at 0.8 mg/kg (10% propylene glycol in water for injection). Mice were dosed once weekly for two doses. Final tumor volumes were analyzed using with a one-way analysis of variance and Tukey multiple comparison test.
# Tumor volume study was repeated with three doses for vehicle, Conjugate 10 (0.7 mg/kg each), and Conjugate 10 NP6 (0.7 mg/kg each). Tumor volumes were tracked for 30 days.
# [9] = Table 6, treated 2 hours, further incubated 70 hours, read-out: H524 IC50
# [10] = read-out: H524 IC50 + 100 μM octreotide, Table 6, with octreotide competition
# [11] = Table 15, treated 2 hours, further incubated 70 hours, read-out: H524 IC50
# [12] = read-out: H524 IC50+ 100 uM octreotide, Table 15, 100 μM octreotide for 30 min, then conjugate 2 hours, 70 hours incubation
SMILES,EC50 [2],H69 tumor DM-1 levels [6],"IC50 [3, 11]","IC50 [3, 12]",Ki [4],further results
CO[C@H]1C(=O)[C@]2(C)[C@@H](OC)C[C@H]3OC[C@@]3(OC(C)=O)[C@H]2[C@H](OC(=O)c2ccccc2)[C@]2(O)C[C@H](OC(=O)[C@H](OC(=O)OCCSSCCC(=O)N[C@H](Cc3ccccc3)C(=O)N[C@H]3CSSC[C@@H](C(=O)N[C@H](CO)[C@@H](C)O)NC(=O)[C@H]([C@@H](C)O)NC(=O)[C@H](CCCCN)NC(=O)[C@@H](Cc4c[nH]c5ccccc45)NC(=O)[C@H](Cc4ccccc4)NC3=O)[C@@H](NC(=O)OC(C)(C)C)c3ccccc3)C(C)=C1C2(C)C [Conjugate 1],4.4 nM,,,,,"solubility in aqueous media containing surfactants such as Tween 80 [1]: high solubility; IC50 [3, 9]: 110 nM; IC50 [3, 10]: 146 nM; Ki ([4]; read-out: SSTR2 Ki): 0.8 nM"
COc1cccc2c1C(=O)c1c(O)c3c(c(O)c1C2=O)C[C@@](O)(C(=O)COC(=O)CCCC(=O)N[C@H](Cc1ccccc1)C(=O)N[C@H]1CSSC[C@@H](C(=O)N[C@H](CO)[C@@H](C)O)NC(=O)[C@H]([C@@H](C)O)NC(=O)[C@H](CCCCN)NC(=O)[C@@H](Cc2c[nH]c4ccccc24)NC(=O)[C@H](Cc2ccccc2)NC1=O)C[C@@H]3O[C@H]1C[C@H](N)[C@H](O)[C@H](C)O1 [Conjugate 2],35 nM,,,,,"solubility in aqueous media containing surfactants such as Tween 80 [1]: high solubility; IC50 [3, 9]: 2850 nM; IC50 [3, 10]: 2940 nM; Ki ([4]; read-out: SSTR2 Ki): 0.24 nM"
COc1cc2cc(c1Cl)N(C)C(=O)C[C@H](OC(=O)[C@H](C)N(C)C(=O)CCSSCCC(=O)NCCCC[C@H]1C(=O)N[C@@H](Cc3ccc(O)cc3)C(=O)N[C@H](Cc3c[nH]c4ccccc34)C(=O)N[C@@H](CCCCN)C(=O)N[C@@H]([C@@H](C)O)C(=O)N[C@@H](Cc3ccccc3)C(=O)N1C)[C@]1(C)O[C@H]1[C@H](C)[C@@H]1C[C@@](O)(NC(=O)O1)[C@H](OC)/C=C/C=C(\C)C2 [Conjugate 10],,72.1 nM,156 nM,625 nM,0.1 nM,"AUC(0-inf) [5]: 0.377 µM·h; clearance [5]: 13 mL/min/kg; phospho-histone H3 response in NCI-H69 tumors after treatment [7]: Increase; phospho-histone H3 response at around 50 hour ([7]; around 50 hour): started to decrease; tumor volume [8]: initially provided tumor regression, but tumors regrew; animals removed from the study due to large tumor size (tumor size less than 2000 mm^3 curve) ([8]; out to 100 days, 2 mg/kg, two doses, FIG. 5): three"
COc1cc2cc(c1Cl)N(C)C(=O)C[C@H](OC(=O)[C@H](C)N(C)C(=O)CCSSCCCN[C@H](Cc1ccccc1)C(=O)N[C@H]1CSSC[C@@H](C(=O)N[C@H](CO)[C@@H](C)O)NC(=O)[C@H]([C@@H](C)O)NC(=O)[C@H](CCCCN)NC(=O)[C@@H](Cc3c[nH]c4ccccc34)NC(=O)[C@H](Cc3ccccc3)NC1=O)[C@]1(C)O[C@H]1[C@H](C)[C@@H]1C[C@@](O)(NC(=O)O1)[C@H](OC)/C=C/C=C(\C)C2 [Conjugate 76],3 nM,62.2 nM,120 nM,768 nM,0.12 nM,
COc1cc2cc(c1Cl)N(C)C(=O)C[C@H](OC(=O)[C@H](C)N(C)C(=O)CCSSCCCN[C@H](Cc1ccccc1)C(=O)N[C@H]1CSSC[C@@H](C(=O)N[C@@H](Cc3c[nH]c4ccccc34)C(N)=O)NC(=O)[C@H](C(C)C)NC(=O)[C@H](CCCCN)NC(=O)[C@@H](Cc3c[nH]c4ccccc34)NC(=O)[C@H](Cc3ccc(O)cc3)NC1=O)[C@]1(C)O[C@H]1[C@H](C)[C@@H]1C[C@@](O)(NC(=O)O1)[C@H](OC)/C=C/C=C(\C)C2 [Conjugate 78] (H-[N(3-sulfanylpropyl)dPhe](X1)CY[dW]KVCW-NH2; disulfide 2-7),,36.2 nM,124 nM,365 nM,0.19 nM,
COc1cc2cc(c1Cl)N(C)C(=O)C[C@H](OC(=O)[C@H](C)N(C)C(=O)CCSSCCOc1ccc(C[C@@H](N)C(=O)N[C@H]3CSSC[C@@H](C(=O)N[C@H](C(=O)O)[C@@H](C)O)NC(=O)[C@H]([C@@H](C)O)NC(=O)[C@H](CCCCN)NC(=O)[C@@H](Cc4c[nH]c5ccccc45)NC(=O)[C@H](Cc4ccc(O)cc4)NC3=O)cc1)[C@]1(C)O[C@H]1[C@H](C)[C@@H]1C[C@@](O)(NC(=O)O1)[C@H](OC)/C=C/C=C(\C)C2 [Conjugate 111],,82.6 nM,123 nM,742 nM,,
COc1cc2cc(c1Cl)N(C)C(=O)C[C@H](OC(=O)[C@H](C)N(C)C(=O)CCSSCCC(=O)NCc1ccc(C[C@@H](N)C(=O)N[C@H]3CSSC[C@@H](C(=O)N[C@H](C(=O)O)[C@@H](C)O)NC(=O)[C@H]([C@@H](C)O)NC(=O)[C@H](CCCCN)NC(=O)[C@@H](Cc4c[nH]c5ccccc45)NC(=O)[C@H](Cc4ccc(O)cc4)NC3=O)cc1)[C@]1(C)O[C@H]1[C@H](C)[C@@H]1C[C@@](O)(NC(=O)O1)[C@H](OC)/C=C/C=C(\C)C2 [Conjugate 115],,37.1 nM,327 nM,1500 nM,,
"COc1cc2cc(c1Cl)N(C)C(=O)C[C@H](OC(=O)[C@H](C)N(C)C(=O)CCS)[C@]1(C)O[C@H]1[C@H](C)[C@@H]1C[C@@](O)(NC(=O)O1)[C@H](OC)/C=C/C=C(\C)C2 [DM1, reference compound]",,,,,,tumor volume [8]: tumor volume increased rapidly
"COc1cc2cc(c1Cl)N(C)C(=O)C[C@H](OC(=O)[C@H](C)N(C)C(=O)CCS)[C@]1(C)O[C@H]1[C@H](C)[C@@H]1C[C@@](O)(NC(=O)O1)[C@H](OC)/C=C/C=C(\C)C2 [DM-1, reference compound]",,31.6 nM,90 nM,90 nM,,
